Experimental data: patent publication US20220274954A1, “SUBSTITUTED N-PHENYL-N-AMINOUARCILS AND SALTS THEREOF AND USE THEREOF AS HERBICIDAL AGENTS” (Bayer Aktiengesellschaft, priority 2019, published 2022)

Assays:
Format in all cases: in vivo
Oryza sativa = assay: Post-emergence crop plant compatibility
Procedure: (§1) Seeds of monocotyledonous and dicotyledonous weeds and crop plants were placed in sandy loam in plastic or wood-fiber pots, covered with soil and cultivated in a greenhouse under controlled growth conditions. 2 to 3 weeks after sowing, the test plants were treated at the one-leaf stage. The compounds of the invention, formulated in the form of wettable powders (WP) or as emulsion concentrates (EC), were then sprayed onto the green parts of the plants as aqueous suspension or emulsion with addition of 0.5% additive at a water application rate of […] (converted). After the test plants had been kept in the greenhouse under optimum growth conditions for about 3 weeks, the activity of the preparations was rated visually in comparison to untreated controls. For example, 100% activity=the plants have died, 0% activity=like control plants.
(§2) Here, the observed effects on selected crop plants are stated in comparison to the untreated controls (values in %).

Triticum aestivum = assay: Post-emergence crop plant compatibility
Procedure: as §1, §2

Alopecurus myosuroides = assay: Post-emergence herbicidal action
Procedure: as §1, with “plants. Tables A1 to A14 below show the effects of selected compounds of the general formula (I) according to Tables I.1 to I.34 on various harmful plants and at an application rate corresponding to 20 g/ha and less, which were obtained by the experimental procedure mentioned above.” for “plants.”

Echinochloa crus-galli = assay: Post-emergence herbicidal action; conditions: for pest or weed control at 5 g/ha / pest or weed control at 20 g/ha: Echinochloa crus-galli, 504 h, read-out: Echinochloa crus-galli (efficacy in %)
Procedure: as §1, with “plants. Tables A1 to A14 below show the effects of selected compounds of the general formula (I) according to Tables I.1 to I.34 on various harmful plants and at an application rate corresponding to 20 g/ha and less, which were obtained by the experimental procedure mentioned above.” for “plants.”

Veronica persica = assay: Post-emergence herbicidal action; conditions: for pest or weed control at 5 g/ha / pest or weed control at 20 g/ha: Veronica persica, 504 h, read-out: Veronica persica (efficacy in %)
Procedure: as §1, with “plants. Tables A1 to A14 below show the effects of selected compounds of the general formula (I) according to Tables I.1 to I.34 on various harmful plants and at an application rate corresponding to 20 g/ha and less, which were obtained by the experimental procedure mentioned above.” for “plants.”

Amaranthus retroflexus = assay: Post-emergence herbicidal action; conditions: for pest or weed control at 5 g/ha / pest or weed control at 20 g/ha: Amaranthus retroflexus, 504 h, read-out: Amaranthus retroflexus (efficacy in %)
Procedure: as §1, with “plants. Tables A1 to A14 below show the effects of selected compounds of the general formula (I) according to Tables I.1 to I.34 on various harmful plants and at an application rate corresponding to 20 g/ha and less, which were obtained by the experimental procedure mentioned above.” for “plants.”

Viola tricolor = assay: Post-emergence herbicidal action; conditions: for pest or weed control at 5 g/ha / pest or weed control at 20 g/ha: Viola tricolor, 504 h, read-out: Viola tricolor (efficacy in %)
Procedure: as §1, with “plants. Tables A1 to A14 below show the effects of selected compounds of the general formula (I) according to Tables I.1 to I.34 on various harmful plants and at an application rate corresponding to 20 g/ha and less, which were obtained by the experimental procedure mentioned above.” for “plants.”

Abutilon theophrasti = assay: Post-emergence herbicidal action; conditions: for pest or weed control at 5 g/ha / pest or weed control at 20 g/ha: Abutilon theophrasti, 504 h, read-out: Abutilon theophrasti (efficacy in %)
Procedure: as §1, with “plants. Tables A1 to A14 below show the effects of selected compounds of the general formula (I) according to Tables I.1 to I.34 on various harmful plants and at an application rate corresponding to 20 g/ha and less, which were obtained by the experimental procedure mentioned above.” for “plants.”

Matricaria inodora = assay: Post-emergence herbicidal action; conditions: for pest or weed control at 5 g/ha / pest or weed control at 20 g/ha: Tripleurospermum inodorum, 504 h, read-out: Matricaria inodora (efficacy in %)
Procedure: as §1, with “plants. Tables A1 to A14 below show the effects of selected compounds of the general formula (I) according to Tables I.1 to I.34 on various harmful plants and at an application rate corresponding to 20 g/ha and less, which were obtained by the experimental procedure mentioned above.” for “plants.”

Pharbitis purpurea = assay: Post-emergence herbicidal action; conditions: for pest or weed control at 20 g/ha / pest or weed control at 5 g/ha: Ipomoea purpurea, 504 h, read-out: Pharbitis purpurea (efficacy in %)
Procedure: as §1, with “plants. Tables A1 to A14 below show the effects of selected compounds of the general formula (I) according to Tables I.1 to I.34 on various harmful plants and at an application rate corresponding to 20 g/ha and less, which were obtained by the experimental procedure mentioned above.” for “plants.”

Zea mays = assay: Post-emergence crop plant compatibility; conditions: application rate 5 g/ha
Procedure: as §1, §2

Setaria viridis = assay: Post-emergence herbicidal action; conditions: 504 h, read-out: Setaria viridis (efficacy in %); for pest or weed control at 5 g/ha: application rate 5 g/ha; for pest or weed control at 20 g/ha: application rate 20 g/ha
Procedure: as §1, with “plants. Tables A1 to A14 below show the effects of selected compounds of the general formula (I) according to Tables I.1 to I.34 on various harmful plants and at an application rate corresponding to 20 g/ha and less, which were obtained by the experimental procedure mentioned above.” for “plants.”

Digitaria sanguinalis = assay: Post-emergence herbicidal action; conditions: 504 h, read-out: Digitaria sanguinalis (efficacy in %); for pest or weed control at 20 g/ha: application rate 20 g/ha
Procedure: as §1, with “plants. Tables A1 to A14 below show the effects of selected compounds of the general formula (I) according to Tables I.1 to I.34 on various harmful plants and at an application rate corresponding to 20 g/ha and less, which were obtained by the experimental procedure mentioned above.” for “plants.”

Polygonum convolvulus = assay: Post-emergence herbicidal action; conditions: Fallopia convolvulus, 504 h, read-out: Polygonum convolvulus (efficacy in %); for pest or weed control at 20 g/ha: application rate 20 g/ha
Procedure: as §1, with “plants. Tables A1 to A14 below show the effects of selected compounds of the general formula (I) according to Tables I.1 to I.34 on various harmful plants and at an application rate corresponding to 20 g/ha and less, which were obtained by the experimental procedure mentioned above.” for “plants.”

Avena fatua = assay: Post-emergence herbicidal action; conditions: application rate 20 g/ha
Procedure: as §1, with “plants. Tables A1 to A14 below show the effects of selected compounds of the general formula (I) according to Tables I.1 to I.34 on various harmful plants and at an application rate corresponding to 20 g/ha and less, which were obtained by the experimental procedure mentioned above.” for “plants.”

| SMILES | Oryza sativa (efficacy in %) (Oryza sativa; application rate 1.25 g/ha) [%] | Oryza sativa (efficacy in %) (Oryza sativa; application rate 5 g/ha) [%] | Triticum aestivum (efficacy in %) (Triticum aestivum; application rate 1.25 g/ha) [%] | Triticum aestivum (efficacy in %) (Triticum aestivum; application rate 5 g/ha) [%] | Alopecurus myosuroides (efficacy in %) (Alopecurus myosuroides; application rate 5 g/ha) [%] | Alopecurus myosuroides (efficacy in %) (Alopecurus myosuroides; application rate 20 g/ha) [%] | Echinochloa crus-galli (efficacy in %) (Echinochloa crus-galli; application rate 5 g/ha) [%] | Echinochloa crus-galli (efficacy in %) (Echinochloa crus-galli; application rate 20 g/ha) [%] | Veronica persica (efficacy in %) (Veronica persica; application rate 5 g/ha) [%] | Veronica persica (efficacy in %) (Veronica persica; application rate 20 g/ha) [%] | Amaranthus retroflexus (efficacy in %) (Amaranthus retroflexus; application rate 5 g/ha) [%] | pest or weed control at 5 g/ha (Veronica persica; application rate 5 g/ha) [%] | pest or weed control at 20 g/ha (Veronica persica; application rate 20 g/ha) [%] | pest or weed control at 5 g/ha (Amaranthus retroflexus; application rate 5 g/ha) [%] | pest or weed control at 20 g/ha (Amaranthus retroflexus; application rate 20 g/ha) [%] | pest or weed control at 5 g/ha (Viola tricolor; application rate 5 g/ha) [%] | pest or weed control at 20 g/ha (Viola tricolor; application rate 20 g/ha) [%] | pest or weed control at 5 g/ha (Abutilon theophrasti; application rate 5 g/ha) [%] | pest or weed control at 20 g/ha (Abutilon theophrasti; application rate 20 g/ha) [%] | pest or weed control at 20 g/ha (Pharbitis purpurea; application rate 20 g/ha) [%] | other results |
| --- | --- | --- | --- | --- | --- | --- | --- | --- | --- | --- | --- | --- | --- | --- | --- | --- | --- | --- | --- | --- | --- |
| CCOC(=O)COc1ncc(F)cc1Sc1cc(-n2c(=O)cc(C(F)(F)F)n(N)c2=O)c(F)cc1Cl [I.31-442] | 0 | 10 | 10 | 20 | 80 | 90 | 90 | 90 | 100 | 100 | 100 |  |  |  |  |  |  |  |  |  | Amaranthus retroflexus (efficacy in %) (Amaranthus retroflexus; application rate 20 g/ha): 100%; Viola tricolor (efficacy in %) (Viola tricolor; application rate 5 g/ha): 100%; Viola tricolor (efficacy in %) (Viola tricolor; application rate 20 g/ha): 100%; Abutilon theophrasti (efficacy in %) (Abutilon theophrasti; application rate 5 g/ha): 100%; Abutilon theophrasti (efficacy in %) (Abutilon theophrasti; application rate 20 g/ha): 100%; Matricaria inodora (efficacy in %) (Matricaria inodora; application rate 20 g/ha): 100%; Pharbitis purpurea (efficacy in %) (Pharbitis purpurea; application rate 5 g/ha): 80%; Pharbitis purpurea (efficacy in %) (Pharbitis purpurea; application rate 20 g/ha): 100% |
| Nn1c(C(F)(F)F)cc(=O)n(-c2cc(Sc3cccnc3OCC(=O)OC3COC3)c(Cl)cc2F)c1=O [I.1-115] |  |  | 20 |  | 80 | 100 | 90 | 100 | 100 | 100 | 100 |  |  |  |  |  |  |  |  |  | Amaranthus retroflexus (efficacy in %) (Amaranthus retroflexus; application rate 20 g/ha): 100%; Viola tricolor (efficacy in %) (Viola tricolor; application rate 5 g/ha): 100%; Viola tricolor (efficacy in %) (Viola tricolor; application rate 20 g/ha): 100%; Abutilon theophrasti (efficacy in %) (Abutilon theophrasti; application rate 5 g/ha): 90%; Abutilon theophrasti (efficacy in %) (Abutilon theophrasti; application rate 20 g/ha): 100%; Matricaria inodora (efficacy in %) (Matricaria inodora; application rate 5 g/ha): 100%; Matricaria inodora (efficacy in %) (Matricaria inodora; application rate 20 g/ha): 100%; Pharbitis purpurea (efficacy in %) (Pharbitis purpurea; application rate 5 g/ha): 100%; Pharbitis purpurea (efficacy in %) (Pharbitis purpurea; application rate 20 g/ha): 100% |
| CCCCCOC(=O)COc1ncccc1Sc1cc(-n2c(=O)cc(C(F)(F)F)n(N)c2=O)c(F)cc1Cl [I.1-448, n-Pentyl {[3-({5-[3-amino-2,6-dioxo-4-(trifluoromethyl)-3,6-dihydropyrimidin-1(2H)-yl]-2-chloro-4-fluorophenyl}sulfanyl)pyridin-2-yl]oxy}acetate] |  | 0 | 0 | 10 |  |  |  |  |  |  |  | 80 | 80 | 100 | 100 | 100 | 100 | 80 | 80 | 100 | Zea mays (efficacy in %) (Zea mays): 20%; pest or weed control at 5 g/ha (Setaria viridis): 80%; pest or weed control at 20 g/ha (Setaria viridis): 100%; pest or weed control at 20 g/ha (Digitaria sanguinalis): 100%; pest or weed control at 20 g/ha (Polygonum convolvulus): 100% |
| COCCOCCOC(=O)COc1ncc(F)cc1Sc1cc(-n2c(=O)cc(C(F)(F)F)n(N)c2=O)c(F)cc1Cl [I.31-23, 2-(2-Methoxyethoxy)ethyl {[3-({5-[3-amino-2,6-dioxo-4-(trifluoromethyl)-3,6-dihydropyrimidin-1(2H)-yl]-2-chloro-4-fluorophenyl}sulfanyl)-5-fluoropyridin-2-yl]oxy}acetate] |  | 20 |  |  |  | 100 |  |  |  |  |  | 100 | 100 | 100 | 100 | 100 | 100 | 100 | 100 | 100 | pest or weed control at 5 g/ha (Echinochloa crus-galli; application rate 5 g/ha): 80%; pest or weed control at 20 g/ha (Echinochloa crus-galli; application rate 20 g/ha): 100%; Avena fatua (efficacy in %) (Avena fatua): 80%; pest or weed control at 5 g/ha (Matricaria inodora; application rate 5 g/ha): 100%; pest or weed control at 20 g/ha (Matricaria inodora; application rate 20 g/ha): 100%; pest or weed control at 5 g/ha (Pharbitis purpurea; application rate 5 g/ha): 100% |
| CCCCOC(=O)COc1ncccc1Sc1cc(-n2c(=O)cc(C(F)(F)F)n(N)c2=O)c(F)cc1Cl [I.1-447, n-Butyl {[3-({5-[3-amino-2,6-dioxo-4-(trifluoromethyl)-3,6-dihydropyrimidin-1(2H)-yl]-2-chloro-4-fluorophenyl}sulfanyl)pyridin-2-yl]oxy}acetate] | 0 | 10 | 10 |  | 80 | 90 |  |  |  |  |  | 100 | 100 | 100 | 100 | 100 | 100 | 100 | 100 | 100 | pest or weed control at 5 g/ha (Echinochloa crus-galli; application rate 5 g/ha): 100%; pest or weed control at 20 g/ha (Echinochloa crus-galli; application rate 20 g/ha): 100%; pest or weed control at 5 g/ha (Setaria viridis): 100%; pest or weed control at 20 g/ha (Setaria viridis): 100%; pest or weed control at 5 g/ha (Digitaria sanguinalis; application rate 5 g/ha): 100%; pest or weed control at 20 g/ha (Digitaria sanguinalis): 100%; pest or weed control at 5 g/ha (Matricaria inodora; application rate 5 g/ha): 100%; pest or weed control at 20 g/ha (Matricaria inodora; application rate 20 g/ha): 100%; pest or weed control at 5 g/ha (Pharbitis purpurea; application rate 5 g/ha): 100%; pest or weed control at 5 g/ha (Polygonum convolvulus; application rate 5 g/ha): 100%; pest or weed control at 20 g/ha (Polygonum convolvulus): 100% |
